Test results from article PMC12892976, “Alkylation-based optimization of antifungal FPPS inhibitors yields a potent, broad-spectrum lipophilic zoledronate derivative” (mBio, 2025).
Converted amounts (≈) assume the structure as drawn.

Tests used:
[1] = system: Cryptococcus bacillisporus; experiment: MIC broth microdilution (CLSI); assay type: cell-based; settings: Cryptococcus bacillisporus NIH179
Experimental: (§1) Antifungal susceptibility was determined by broth microdilution according to the CLSI guidelines described in M27-Ed4 ([16]).

Cryptococcus tetragattii = experiment: MIC broth microdilution (CLSI); assay type: cell-based; settings: Cryptococcus tetragattii WM779
Experimental: as §1

[2] = system: Cryptococcus deneoformans; experiment: MIC broth microdilution (CLSI); assay type: cell-based; settings: Cryptococcus deneoformans JEC21
Experimental: as §1

Scedosporium apiospermum [3] = experiment: MIC broth microdilution (CLSI); assay type: cell-based; settings: Scedosporium apiospermum 04-16-022-2268
Experimental: as §1

Pichia kudriavzevii = experiment: MIC broth microdilution (CLSI); assay type: cell-based; settings: Pichia kudriavzavii ATCC 6258
Experimental: Antifungal susceptibility was determined by broth microdilution according to the CLSI guidelines described in M27-Ed4 ([16]). […] MFC was determined by back-plating drug-treated cultures from MIC broths onto SDA plates. The MFC was defined as the lowest concentration from which no colonies could be cultured.

Candida auris = experiment: MIC broth microdilution (CLSI); assay type: cell-based; settings: Candida auris CDC-0384
Experimental: as §1

Candida tropicalis = experiment: MIC broth microdilution (CLSI); assay type: cell-based; settings: Candida tropicalis M230640
Experimental: as §1

Candida dubliniensis = experiment: MIC broth microdilution (CLSI); assay type: cell-based; settings: Candida dubliniensis M230642
Experimental: as §1

Aspergillus udagawae [4] = experiment: MIC broth microdilution (CLSI); assay type: cell-based; settings: Aspergillus udagawae 8G81
Experimental: as §1

Nannizzia gypsea = experiment: MIC broth microdilution (CLSI); assay type: cell-based; settings: Nannizzia gypsea R-131
Experimental: as §1

Nannizzia nana = experiment: MIC broth microdilution (CLSI); assay type: cell-based; settings: Nannizzia nana R-133
Experimental: as §1

[5] = system: Trichophyton interdigitale; experiment: MIC broth microdilution (CLSI); assay type: cell-based; settings: Trichophyton interdigitale R-234
Experimental: as §1

Mucor circinelloides = experiment: checkerboard drug interaction (FICI, MICc); assay type: cell-based;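 also: simplified diagonal checkerboard screen pairing antifungals with FPPS inhibitors, FICI calculated under the Loewe additivity model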
Experimental: (§2) Drug interactions between antifungals and FPPS inhibitors were investigated using a simplified checkerboard diagonal screening method ([45]). […] FICIs were determined according to the Loewe additivity model ([17]).

Rhizopus oryzae = experiment: checkerboard drug interaction (FICI, MICc); assay type: cell-based;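 also: simplified diagonal checkerboard screen pairing antifungals with FPPS inhibitors, FICI calculated under the Loewe additivity model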
Experimental: as §2

[6] = system: Cryptococcus bacillisporus; experiment: checkerboard drug interaction (FICI, MICc); assay type: cell-based;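 also: interaction of antifungals with FPPS inhibitors assessed by a simplified diagonal checkerboard screen, with FICI computed under the Loewe additivity model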
Experimental: as §2

Fusarium oxysporum = experiment: checkerboard drug interaction (FICI, MICc); assay type: cell-based;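 also: simplified diagonal checkerboard screen pairing antifungals with FPPS inhibitors, FICI calculated under the Loewe additivity model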
Experimental: as §2

Scedosporium apiospermum [7] = experiment: checkerboard drug interaction (FICI, MICc); assay type: cell-based;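 also: simplified diagonal checkerboard screen of antifungal plus FPPS inhibitor pairs, with FICI computed under the Loewe additivity model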
Experimental: as §2

Candida parapsilosis = experiment: checkerboard drug interaction (FICI, MICc); assay type: cell-based;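 also: simplified diagonal checkerboard screen pairing antifungals with FPPS inhibitors, with FICI computed under the Loewe additivity model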
Experimental: as §2

Aspergillus udagawae [8] = experiment: checkerboard drug interaction (FICI, MICc); assay type: cell-based;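 also: simplified diagonal checkerboard screen pairing antifungals with FPPS inhibitors, FICI calculated using the Loewe additivity model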
Experimental: as §2

Aspergillus felis = experiment: checkerboard drug interaction (FICI, MICc); assay type: cell-based;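 also: simplified diagonal checkerboard screen pairing antifungals with FPPS inhibitors, FICI calculated under the Loewe additivity model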
Experimental: as §2

[9] = system: 38 species of clinically relevant fungi; experiment: MIC summary across 38 species of clinically relevant fungi; assay type: cell-based; settings: 38 fungal species; read-out: GM MIC
Source text: […]; Table S3). […]. […] […]. […] […].

Microsporum canis = experiment: MIC broth microdilution (CLSI); settings: Microsporum canis R-232
Experimental: as §1

Trichophyton soudanense = experiment: MIC broth microdilution (CLSI); settings: Trichophyton soudanense R-167
Experimental: as §1

Aspergillus parafelis = experiment: checkerboard drug interaction (FICI, MICc)
Experimental: as §2

[10] = system: Trichophyton interdigitale; experiment: checkerboard drug interaction (FICI, MICc);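 also: simplified diagonal checkerboard screen pairing antifungals with FPPS inhibitors, FICI values calculated under the Loewe additivity model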
Experimental: as §2

O=P(O)(O)C(O)(Cn1ccnc1)P(=O)(O)O [ZOL, zoledronate]
MIC / MEC [1]: 128 µg/mL (≈ 470 µM) | MIC / MEC (Cryptococcus tetragattii): 64 µg/mL (≈ 235 µM) | MIC / MEC [2]: 128 µg/mL (≈ 470 µM) | MIC / MEC (Scedosporium apiospermum [3]): 256 µg/mL (≈ 941 µM) | MIC / MEC (Pichia kudriavzevii): 256 µg/mL (≈ 941 µM) | MIC / MEC (Candida auris): 128 µg/mL (≈ 470 µM) | MIC / MEC (Candida tropicalis): 128 µg/mL (≈ 470 µM) | MIC / MEC (Candida dubliniensis): 4 µg/mL (≈ 14.7 µM) | MIC / MEC (Aspergillus udagawae [4]): 256 µg/mL (≈ 941 µM) | MIC / MEC (Nannizzia gypsea): 256 µg/mL (≈ 941 µM) | MIC / MEC (Nannizzia nana): 128 µg/mL (≈ 470 µM) | MIC / MEC [5]: 256 µg/mL (≈ 941 µM) | FICI (Mucor circinelloides; 5FC:ZOL): ≥4 | FICI (Mucor circinelloides; AMB:ZOL): 3 | FICI (Mucor circinelloides; CAS:ZOL): 1 | FICI (Mucor circinelloides; FLC:ZOL): 0.38 | FICI (Mucor circinelloides; ITR:ZOL): 0.25 | FICI (Mucor circinelloides; KET:ZOL): 0.75 | FICI (Mucor circinelloides; VOR:ZOL): 0.63 | bisphosphonate MICc (Mucor circinelloides; ZOL with 5FC): 64 | bisphosphonate MICc (Mucor circinelloides; ZOL with AMB): 128 | bisphosphonate MICc (Mucor circinelloides; ZOL with CAS): 32 | bisphosphonate MICc (Mucor circinelloides; ZOL with FLC): 16 | bisphosphonate MICc (Mucor circinelloides; ZOL with ITR): 8 | bisphosphonate MICc (Mucor circinelloides; ZOL with KET): 16 | bisphosphonate MICc (Mucor circinelloides; ZOL with VOR): 8 | FICI (Rhizopus oryzae; 5FC:ZOL): 3 | FICI (Rhizopus oryzae; AMB:ZOL): 1.13 | FICI (Rhizopus oryzae; CAS:ZOL): 0.63 | FICI (Rhizopus oryzae; FLC:ZOL): 1 | FICI (Rhizopus oryzae; ITR:ZOL): 1.02 | FICI (Rhizopus oryzae; KET:ZOL): 0.63 | FICI (Rhizopus oryzae; VOR:ZOL): 0.52 | bisphosphonate MICc (Rhizopus oryzae; ZOL with 5FC): 512 | bisphosphonate MICc (Rhizopus oryzae; ZOL with AMB): 64 | bisphosphonate MICc (Rhizopus oryzae; ZOL with CAS): 256 | bisphosphonate MICc (Rhizopus oryzae; ZOL with FLC): 256 | bisphosphonate MICc (Rhizopus oryzae; ZOL with ITR): 8 | bisphosphonate MICc (Rhizopus oryzae; ZOL with KET): 64 | bisphosphonate MICc (Rhizopus oryzae; ZOL with VOR): 8 | FICI ([6]; 5FC:ZOL): 1.03 | FICI ([6]; AMB:ZOL): 6 | FICI ([6]; CAS:ZOL): 1.13 | FICI ([6]; FLC:ZOL): 0.38 | FICI ([6]; ITR:ZOL): 1.29 | FICI ([6]; KET:ZOL): 1.02 | FICI ([6]; VOR:ZOL): 2.33 | bisphosphonate MICc ([6]; ZOL with 5FC): 128 | bisphosphonate MICc ([6]; ZOL with AMB): 256 | bisphosphonate MICc ([6]; ZOL with CAS): 16 | bisphosphonate MICc ([6]; ZOL with FLC): 32 | bisphosphonate MICc ([6]; ZOL with ITR): 32 | bisphosphonate MICc ([6]; ZOL with KET): 2 | bisphosphonate MICc ([6]; ZOL with VOR): 32 | FICI (Fusarium oxysporum; 5FC:ZOL): ≥4 | FICI (Fusarium oxysporum; AMB:ZOL): 0.63 | FICI (Fusarium oxysporum; CAS:ZOL): 2.5 | FICI (Fusarium oxysporum; FLC:ZOL): 0.75 | FICI (Fusarium oxysporum; ITR:ZOL): 0.5 | FICI (Fusarium oxysporum; KET:ZOL): 0.75 | FICI (Fusarium oxysporum; VOR:ZOL): 1.02 | bisphosphonate MICc (Fusarium oxysporum; ZOL with 5FC): 256 | bisphosphonate MICc (Fusarium oxysporum; ZOL with AMB): 64 | bisphosphonate MICc (Fusarium oxysporum; ZOL with CAS): 256 | bisphosphonate MICc (Fusarium oxysporum; ZOL with FLC): 256 | bisphosphonate MICc (Fusarium oxysporum; ZOL with ITR): 128 | bisphosphonate MICc (Fusarium oxysporum; ZOL with KET): 256 | bisphosphonate MICc (Fusarium oxysporum; ZOL with VOR): 8 | FICI (Scedosporium apiospermum [7]; 5FC:ZOL): 3 | FICI (Scedosporium apiospermum [7]; AMB:ZOL): 1.5 | FICI (Scedosporium apiospermum [7]; CAS:ZOL): ≥4 | FICI (Scedosporium apiospermum [7]; FLC:ZOL): 0.63 | FICI (Scedosporium apiospermum [7]; ITR:ZOL): 0.56 | FICI (Scedosporium apiospermum [7]; KET:ZOL): 0.63 | FICI (Scedosporium apiospermum [7]; VOR:ZOL): 1.5 | bisphosphonate MICc (Scedosporium apiospermum [7]; ZOL with 5FC): 256 | bisphosphonate MICc (Scedosporium apiospermum [7]; ZOL with AMB): 128 | bisphosphonate MICc (Scedosporium apiospermum [7]; ZOL with CAS): 512 | bisphosphonate MICc (Scedosporium apiospermum [7]; ZOL with FLC): 32 | bisphosphonate MICc (Scedosporium apiospermum [7]; ZOL with ITR): 16 | bisphosphonate MICc (Scedosporium apiospermum [7]; ZOL with KET): 32 | bisphosphonate MICc (Scedosporium apiospermum [7]; ZOL with VOR): 128 | FICI (Candida parapsilosis; 5FC:ZOL): 1 | FICI (Candida parapsilosis; AMB:ZOL): 1.5 | FICI (Candida parapsilosis; CAS:ZOL): 0.75 | FICI (Candida parapsilosis; FLC:ZOL): 0.38 | FICI (Candida parapsilosis; ITR:ZOL): 0.5 | FICI (Candida parapsilosis; KET:ZOL): 0.53 | FICI (Candida parapsilosis; VOR:ZOL): 1.21 | bisphosphonate MICc (Candida parapsilosis; ZOL with 5FC): 64 | bisphosphonate MICc (Candida parapsilosis; ZOL with AMB): 64 | bisphosphonate MICc (Candida parapsilosis; ZOL with CAS): 32 | bisphosphonate MICc (Candida parapsilosis; ZOL with FLC): 32 | bisphosphonate MICc (Candida parapsilosis; ZOL with ITR): 32 | bisphosphonate MICc (Candida parapsilosis; ZOL with KET): 4 | bisphosphonate MICc (Candida parapsilosis; ZOL with VOR): 32 | FICI (Aspergillus udagawae [8]; 5FC:ZOL): ≥4 | FICI (Aspergillus udagawae [8]; AMB:ZOL): 0.63 | FICI (Aspergillus udagawae [8]; CAS:ZOL): 2 | FICI (Aspergillus udagawae [8]; FLC:ZOL): 1.01 | FICI (Aspergillus udagawae [8]; ITR:ZOL): 1 | FICI (Aspergillus udagawae [8]; KET:ZOL): 0.75 | FICI (Aspergillus udagawae [8]; VOR:ZOL): 1 | bisphosphonate MICc (Aspergillus udagawae [8]; ZOL with 5FC): 512 | bisphosphonate MICc (Aspergillus udagawae [8]; ZOL with AMB): 128 | bisphosphonate MICc (Aspergillus udagawae [8]; ZOL with CAS): 256 | bisphosphonate MICc (Aspergillus udagawae [8]; ZOL with FLC): 2 | bisphosphonate MICc (Aspergillus udagawae [8]; ZOL with ITR): 128 | bisphosphonate MICc (Aspergillus udagawae [8]; ZOL with KET): 128 | bisphosphonate MICc (Aspergillus udagawae [8]; ZOL with VOR): 128 | FICI (Aspergillus felis; 5FC:ZOL): 1.5 | FICI (Aspergillus felis; AMB:ZOL): 2.5 | FICI (Aspergillus felis; CAS:ZOL): 2.5 | FICI (Aspergillus felis; FLC:ZOL): 1.03 | FICI (Aspergillus felis; ITR:ZOL): 0.52 | FICI (Aspergillus felis; KET:ZOL): 0.63 | FICI (Aspergillus felis; VOR:ZOL): 0.38 | bisphosphonate MICc (Aspergillus felis; ZOL with 5FC): 512 | bisphosphonate MICc (Aspergillus felis; ZOL with AMB): 256 | bisphosphonate MICc (Aspergillus felis; ZOL with CAS): 256 | bisphosphonate MICc (Aspergillus felis; ZOL with FLC): 16 | bisphosphonate MICc (Aspergillus felis; ZOL with ITR): 8 | bisphosphonate MICc (Aspergillus felis; ZOL with KET): 64 | bisphosphonate MICc (Aspergillus felis; ZOL with VOR): 64 | MIC [9]: 148 ± 176 µg/mL (≈ 544 µM) | MIC / MEC (Microsporum canis): 64 µg/mL (≈ 235 µM) | MIC / MEC (Trichophyton soudanense): 64 µg/mL (≈ 235 µM) | FICI (Aspergillus parafelis; 5FC:ZOL): 2 | FICI (Aspergillus parafelis; AMB:ZOL): 1.13 | FICI (Aspergillus parafelis; CAS:ZOL): 0.56 | FICI (Aspergillus parafelis; FLC:ZOL): 0.5 | FICI (Aspergillus parafelis; ITR:ZOL): 1.06 | FICI (Aspergillus parafelis; KET:ZOL): 2 | FICI (Aspergillus parafelis; VOR:ZOL): 0.5 | bisphosphonate MICc (Aspergillus parafelis; ZOL with 5FC): 512 | bisphosphonate MICc (Aspergillus parafelis; ZOL with AMB): 64 | bisphosphonate MICc (Aspergillus parafelis; ZOL with CAS): 32 | bisphosphonate MICc (Aspergillus parafelis; ZOL with FLC): 2 | bisphosphonate MICc (Aspergillus parafelis; ZOL with ITR): 32 | bisphosphonate MICc (Aspergillus parafelis; ZOL with KET): 512 | bisphosphonate MICc (Aspergillus parafelis; ZOL with VOR): 128 | FICI ([10]; 5FC:ZOL): 2 | FICI ([10]; AMB:ZOL): 3 | FICI ([10]; CAS:ZOL): 1.25 | FICI ([10]; FLC:ZOL): 0.5 | FICI ([10]; ITR:ZOL): 0.27 | FICI ([10]; KET:ZOL): 0.5 | FICI ([10]; VOR:ZOL): 0.38 | bisphosphonate MICc ([10]; ZOL with 5FC): 256 | bisphosphonate MICc ([10]; ZOL with AMB): 256 | bisphosphonate MICc ([10]; ZOL with CAS): 64 | bisphosphonate MICc ([10]; ZOL with FLC): 64 | bisphosphonate MICc ([10]; ZOL with ITR): 4 | bisphosphonate MICc ([10]; ZOL with KET): 64 | bisphosphonate MICc ([10]; ZOL with VOR): 32
